Counter-ions that a name gives are not always drawn.
Experiments:
[1] = molecular target: T1, human recombinant 5-HT2C receptor (Homo sapiens, UniProt P28335); experiment: Binding affinity for serotonin 5-HT2C receptor ([3H]Mesulergine); conditions: CHO-K1 membranes, 1.3 nM [3H]Mesulergine
T1 construct: purchased PerkinElmer
T1 sequence (P28335 33-458): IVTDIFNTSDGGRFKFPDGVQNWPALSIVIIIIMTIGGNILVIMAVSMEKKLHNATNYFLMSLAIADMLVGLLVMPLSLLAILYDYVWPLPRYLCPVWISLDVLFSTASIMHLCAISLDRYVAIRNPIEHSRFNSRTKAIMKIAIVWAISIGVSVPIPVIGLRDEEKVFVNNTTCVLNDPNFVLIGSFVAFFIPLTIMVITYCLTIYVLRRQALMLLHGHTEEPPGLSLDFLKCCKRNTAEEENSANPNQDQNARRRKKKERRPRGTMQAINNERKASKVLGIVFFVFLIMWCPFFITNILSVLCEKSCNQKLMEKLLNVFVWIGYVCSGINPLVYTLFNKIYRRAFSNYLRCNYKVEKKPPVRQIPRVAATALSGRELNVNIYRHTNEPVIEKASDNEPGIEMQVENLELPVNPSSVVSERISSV
Experimental: Receptor binding affinities of the compounds for serotonin receptors were measured by the method described in the literature [Park W K et al., Pharmacol Biochem Behav.
(§1) The binding affinity (IC50) of a compound for the receptor was calculated by computerized nonlinear regression analysis (GraphPad Prism Program, San Diego, USA) using 7-8 varied concentrations of the compound run in duplicate tubes.
Nonspecific binding was determined using 100 uM mianserin. The incubations were performed for 60 min at 27, and these were terminated by rapid filtration through filtermate. A glass fiber filter presoaked in 0.5% PEI.

[2] = molecular target: T2, human serotonin transporter (Homo sapiens, UniProt P31645); experiment: Binding affinity for serotonin transporter ([3H]Imipramine); conditions: HEK-293 membranes, 2 nM [3H]Imipramine
T2 construct: purchased PerkinElmer; host or cells: HEK-293
T2 sequence (P31645 whole entry): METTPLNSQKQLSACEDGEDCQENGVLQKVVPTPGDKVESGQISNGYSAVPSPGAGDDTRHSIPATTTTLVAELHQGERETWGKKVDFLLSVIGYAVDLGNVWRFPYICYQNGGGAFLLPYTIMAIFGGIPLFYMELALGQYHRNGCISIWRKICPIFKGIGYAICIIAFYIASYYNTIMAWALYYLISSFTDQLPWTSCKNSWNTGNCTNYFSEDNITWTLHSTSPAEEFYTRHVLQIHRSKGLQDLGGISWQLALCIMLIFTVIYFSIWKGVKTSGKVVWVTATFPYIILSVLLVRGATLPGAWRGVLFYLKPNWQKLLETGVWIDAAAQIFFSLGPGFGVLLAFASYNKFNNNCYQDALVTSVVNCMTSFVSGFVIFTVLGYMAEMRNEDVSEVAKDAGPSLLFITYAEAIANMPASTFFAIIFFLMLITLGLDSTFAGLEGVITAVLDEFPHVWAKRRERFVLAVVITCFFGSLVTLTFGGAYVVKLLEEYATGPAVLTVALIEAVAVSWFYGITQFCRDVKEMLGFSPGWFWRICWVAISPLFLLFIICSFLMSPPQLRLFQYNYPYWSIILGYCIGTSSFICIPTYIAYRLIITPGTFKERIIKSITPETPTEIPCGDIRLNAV
Experimental: For serotonin transporter binding assays, a reaction mixture with a final volume of 0.25 ml was prepared by mixing a test compound, human serotonin transporter membrane expressed in HEK-293 cells (PerkinElmer, 5 ug/well), [^3H]Imipramine (PerkinElmer, 2 nM) and 50 mM Tris-HCl (pH 7.4) buffer containing 120 mM NaCl and 5 mM KCl. The reaction mixture was incubated for 30 min at 27, and harvested through filtermate. A glass fiber filter presoaked in 0.5% PEI with ice cold 50 mM Tris-HCl buffer (pH 7.4) containing 0.9% NaCl.

[3] = molecular target: T3, human recombinant serotonin 5-HT2A receptor (Homo sapiens, UniProt P28223); experiment: Binding affinity for serotonin 5-HT2A receptor ([3H]Ketanserin); conditions: CHO-K1 expressed receptor, 1 nM [3H]Ketanserin
T3 construct: purchased PerkinElmer Life and Analytical Sciences, USA; host or cells: CHO-K1
T3 sequence (P28223 whole entry): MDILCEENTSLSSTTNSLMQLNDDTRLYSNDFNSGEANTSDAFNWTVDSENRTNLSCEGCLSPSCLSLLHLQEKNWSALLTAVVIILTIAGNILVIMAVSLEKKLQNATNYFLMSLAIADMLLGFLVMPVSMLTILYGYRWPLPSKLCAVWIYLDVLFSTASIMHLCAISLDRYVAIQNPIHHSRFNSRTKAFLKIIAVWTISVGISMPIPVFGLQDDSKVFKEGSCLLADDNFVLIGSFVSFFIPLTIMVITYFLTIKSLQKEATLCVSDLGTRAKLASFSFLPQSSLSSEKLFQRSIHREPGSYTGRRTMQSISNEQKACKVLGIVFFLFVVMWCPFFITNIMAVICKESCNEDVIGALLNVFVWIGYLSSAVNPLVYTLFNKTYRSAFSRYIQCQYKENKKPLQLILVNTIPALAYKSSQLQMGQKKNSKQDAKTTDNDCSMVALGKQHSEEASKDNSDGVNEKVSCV
Experimental: Receptor binding affinities of the compounds for serotonin receptors were measured by the method described in the literature [Park W K et al., Pharmacol Biochem Behav. 2005, 82(2), 361-372].
For serotonin 5-HT2A binding, an aliquot of human recombinant serotonin 5-HT2A receptor (PerkinElmer Life and Analytical Sciences, USA) expressed in CHO-K1 cells (5 ug/well) and 1 nM [^3H]Ketanserin (PerkinElmer) were used in the presence of mianserin (20 uM) as nonspecific. The reaction mixture was incubated for 60 min at 27 using 50 mM Tris-HCl (pH 7.4) buffer containing 4 mM CaCl2 and 0.1% ascorbic acid, and harvested through filtermate A glass fiber filter (Wallac, Finland) presoaked in 0.5% polyethyleneimine (PEI) by microbeta filtermate-96 harvester (PerkinElmer) to terminate the reaction, and then washed with ice cold 50 mM Tris-HCl buffer solution (pH 7.4). The filter was then covered with MeltiLex, sealed in a sample bag, dried in an oven. The radioactivity retained in the filter was finally counted using MicroBeta Plus (Wallac).
as §1

SMILES	IC50 [1] [nM]	IC50 [2] [nM]	IC50 [3] [nM]
CCCn1c(-c2ccccc2)cc(C(=O)NCCCN2CCN(c3cccc(Cl)c3)CC2)c1C [Example 6, N-(3-(4-(3-chlorophenyl)piperazin-1-yl)propyl)-2-methyl-5-phenyl-1-propyl-1H-pyrrole-3-carboxamide]	273	93	191
CCCn1c(-c2ccccn2)cc(C(=O)NCCCN2CCN(c3cccc(Cl)c3Cl)CC2)c1C [Example 93, N-(3-(4-(2,3-dichlorophenyl)piperazin-1-yl)propyl)-2-methyl-1-propyl-5-(pyridin-2-yl)-1H-pyrrole-3-carboxamide dihydrochloride]	639	397	58
C=CCCc1cc(C(=O)NCCCN2CCN(c3cccc(Cl)c3Cl)CC2)c(C)n1C [Example 136, 5-(but-3-enyl)-N-(3-(4-(2,3-dichlorophenyl)piperazin-1-yl)propyl)-1,2-dimethyl-1H-pyrrole-3-carboxamide]	173	347	108
CCCn1c(-c2ccccc2)cc(C(=O)NCCCN2CCN(c3cccc(OC)c3OC)CC2)c1C [Example 159, N-(3-(4-(2,3-dimethoxyphenyl)piperazin-1-yl)propyl)-2-methyl-5-phenyl-1-propyl-1H-pyrrole-3-carboxamide]	977	1980	874
Cc1c(C(=O)NCCCN2CCN(c3cccc(Cl)c3Cl)CC2)cc(-c2ccccc2)n1CC1CCCCC1 [Example 22, 1-(cyclohexylmethyl)-N-(3-(4-(2,3-dichlorophenyl)piperazin-1-yl)propyl)-2-methyl-5-phenyl-1H-pyrrole-3-carboxamide]	1030	412	4380
Cc1cccc(N2CCN(CCCCNC(=O)c3cc(-c4ccccc4)[nH]c3C)CC2)c1C [Example 40, N-(4-(4-(2,3-dimethylphenyl)piperazin-1-yl)butyl)-2-methyl-5-phenyl-1H-pyrrole-3-carboxamide hydrochloride]	63	21	10
Cc1c(C(=O)NCCCN2CCN(c3cccc(Cl)c3Cl)CC2)cc(-c2ccncc2)n1C [Example 106, N-(3-(4-(2,3-dichlorophenyl)piperazin-1-yl)propyl)-1,2-dimethyl-5-(pyridin-4-yl)-1H-pyrrole-3-carboxamide]	175	85	39
CCCn1c(-c2ccccc2)cc(C(=O)NCCCN2CCN(c3cccc(Cl)c3Cl)CC2)c1C [Example 12, N-(3-(4-(2,3-dichlorophenyl)piperazin-1-yl)propyl)-2-methyl-5-phenyl-1-propyl-1H-pyrrole-3-carboxamide]	628	420	324
Cc1cccc(N2CCN(CCCCNC(=O)c3cc(-c4ccc(Cl)cc4)[nH]c3C)CC2)c1C [Example 46, 5-(4-chlorophenyl)-N-(4-(4-(2,3-dimethylphenyl)piperazin-1-yl)butyl)-2-methyl-1H-pyrrole-3-carboxamide hydrochloride]	88	98	32
CCn1c(-c2ccccc2)cc(C(=O)NCCCN2CCN(c3cccc(C)c3C)CC2)c1C [Example 5, N-(3-(4-(2,3-dimethylphenyl)piperazin-1-yl)propyl)-1-ethyl-2-methyl-5-phenyl-1H-pyrrole-3-carboxamide]	139	35.9	75
Cc1cccc(N2CCN(CCCNC(=O)c3cc(-c4ccccc4)[nH]c3C)CC2)c1C [Example 24, N-(3-(4-(2,3-dimethylphenyl)piperazin-1-yl)propyl)-2-methyl-5-phenyl-1H-pyrrole-3-carboxamide]	615	77	300
Cc1c(C(=O)NCCCN2CCN(c3cccc(Cl)c3Cl)CC2)cc(C(C)(C)C)n1C [Example 128, 5-tert-butyl-N-(3-(4-(2,3-dichlorophenyl)piperazin-1-yl)propyl)-1,2-dimethyl-1H-pyrrole-3-carboxamide]	1020	375	163
